Reference: patent US8134007B2, “Pyridine derivatives” (Pfizer Inc., priority 2007, dated 2012)

How the values were obtained:
Assay type in all cases: cell-based
[1] = biological target: T1, Human Nav1.5 (Homo sapiens, UniProt Q14524); experiment: Nav1.5 Assay (VIPR, HEK293 cells); conditions: HEK293 cells expressing Human Nav1.5; average of replicates; read-out: Nav1.5 IC50
T1 construct: expressed in transfected cells; host or cells: HEK293
Method: The Nav1.5 assay is performed in HEK293 cells expressing Human Nav1.5 in the same way as the Nav1.8 assay.
Where replicate experiments were conducted resulting in multiple sets of data for a test compound, the data presented represent the average value from all replicate experiments.

[2] = tested on: tetrodotoxin-sensitive voltage-gated sodium channels including NaV1.2, NaV1.3 and NaV1.7; experiment: TTX-S Assay (VIPR, SHSY-5Y cell line, veratridine opener); conditions: read-out: TTX-S IC50, veratridine 50 μM opener, average of replicates
[3] = biological target: T2, Human Nav1.8 (Homo sapiens, UniProt Q9Y5Y9); experiment: VIPR Assay for Nav1.8 Compounds (FRET membrane potential, deltamethrin opener); conditions: VIPR FRET membrane potential assay, deltamethrin opener; average of replicates; read-out: Nav1.8 IC50
T2 construct: expressed in transfected cells; host or cells: HEK293
T2 sequence (Q9Y5Y9 whole entry): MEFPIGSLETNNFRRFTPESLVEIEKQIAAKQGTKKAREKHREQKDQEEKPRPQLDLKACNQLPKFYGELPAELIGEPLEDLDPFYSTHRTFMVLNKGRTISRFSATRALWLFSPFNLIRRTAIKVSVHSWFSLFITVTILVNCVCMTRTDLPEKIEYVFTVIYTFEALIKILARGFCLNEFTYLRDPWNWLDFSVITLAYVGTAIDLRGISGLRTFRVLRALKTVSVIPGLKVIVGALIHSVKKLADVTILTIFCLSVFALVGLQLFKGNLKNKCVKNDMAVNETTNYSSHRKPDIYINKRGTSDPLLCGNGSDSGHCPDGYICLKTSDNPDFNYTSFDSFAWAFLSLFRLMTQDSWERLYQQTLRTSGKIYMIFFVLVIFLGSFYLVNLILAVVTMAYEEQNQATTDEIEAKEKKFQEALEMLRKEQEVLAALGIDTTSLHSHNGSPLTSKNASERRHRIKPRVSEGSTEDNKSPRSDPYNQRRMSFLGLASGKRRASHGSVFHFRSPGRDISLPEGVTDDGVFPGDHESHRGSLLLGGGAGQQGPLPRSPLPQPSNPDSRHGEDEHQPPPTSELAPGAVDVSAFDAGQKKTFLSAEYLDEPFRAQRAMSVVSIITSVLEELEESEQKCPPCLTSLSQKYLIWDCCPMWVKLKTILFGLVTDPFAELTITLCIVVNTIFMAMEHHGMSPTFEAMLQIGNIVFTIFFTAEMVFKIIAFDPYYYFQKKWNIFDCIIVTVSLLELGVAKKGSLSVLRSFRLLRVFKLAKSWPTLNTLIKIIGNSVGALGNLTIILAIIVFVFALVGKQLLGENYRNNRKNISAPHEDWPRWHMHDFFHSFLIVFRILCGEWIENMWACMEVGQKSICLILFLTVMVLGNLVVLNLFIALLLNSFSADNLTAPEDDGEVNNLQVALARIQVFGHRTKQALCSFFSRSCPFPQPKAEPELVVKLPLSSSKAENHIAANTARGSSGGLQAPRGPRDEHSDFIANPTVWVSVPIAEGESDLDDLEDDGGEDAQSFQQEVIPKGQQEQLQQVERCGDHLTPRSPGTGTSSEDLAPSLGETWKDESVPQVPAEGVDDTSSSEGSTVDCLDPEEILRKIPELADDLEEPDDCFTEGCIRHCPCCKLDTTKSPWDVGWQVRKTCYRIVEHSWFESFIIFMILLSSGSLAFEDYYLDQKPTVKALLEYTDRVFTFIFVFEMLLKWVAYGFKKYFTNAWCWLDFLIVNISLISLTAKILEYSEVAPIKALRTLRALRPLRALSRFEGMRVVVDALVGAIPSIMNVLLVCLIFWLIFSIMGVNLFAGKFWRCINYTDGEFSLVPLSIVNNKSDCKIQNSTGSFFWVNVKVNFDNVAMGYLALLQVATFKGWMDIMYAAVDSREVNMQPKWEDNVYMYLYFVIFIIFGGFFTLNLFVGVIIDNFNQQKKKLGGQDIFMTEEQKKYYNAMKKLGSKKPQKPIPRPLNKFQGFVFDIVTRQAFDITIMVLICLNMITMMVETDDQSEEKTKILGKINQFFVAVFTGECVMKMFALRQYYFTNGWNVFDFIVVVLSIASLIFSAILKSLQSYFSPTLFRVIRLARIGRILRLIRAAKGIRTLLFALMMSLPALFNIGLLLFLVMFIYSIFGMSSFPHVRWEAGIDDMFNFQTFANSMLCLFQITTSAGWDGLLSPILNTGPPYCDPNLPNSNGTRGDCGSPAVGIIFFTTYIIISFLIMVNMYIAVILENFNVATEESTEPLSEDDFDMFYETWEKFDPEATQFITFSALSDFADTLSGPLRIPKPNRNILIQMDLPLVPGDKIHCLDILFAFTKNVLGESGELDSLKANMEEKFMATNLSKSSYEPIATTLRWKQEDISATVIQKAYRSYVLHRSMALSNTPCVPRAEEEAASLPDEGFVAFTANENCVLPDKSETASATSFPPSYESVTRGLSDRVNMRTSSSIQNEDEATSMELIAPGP

T1 sequence (Q14524 whole entry): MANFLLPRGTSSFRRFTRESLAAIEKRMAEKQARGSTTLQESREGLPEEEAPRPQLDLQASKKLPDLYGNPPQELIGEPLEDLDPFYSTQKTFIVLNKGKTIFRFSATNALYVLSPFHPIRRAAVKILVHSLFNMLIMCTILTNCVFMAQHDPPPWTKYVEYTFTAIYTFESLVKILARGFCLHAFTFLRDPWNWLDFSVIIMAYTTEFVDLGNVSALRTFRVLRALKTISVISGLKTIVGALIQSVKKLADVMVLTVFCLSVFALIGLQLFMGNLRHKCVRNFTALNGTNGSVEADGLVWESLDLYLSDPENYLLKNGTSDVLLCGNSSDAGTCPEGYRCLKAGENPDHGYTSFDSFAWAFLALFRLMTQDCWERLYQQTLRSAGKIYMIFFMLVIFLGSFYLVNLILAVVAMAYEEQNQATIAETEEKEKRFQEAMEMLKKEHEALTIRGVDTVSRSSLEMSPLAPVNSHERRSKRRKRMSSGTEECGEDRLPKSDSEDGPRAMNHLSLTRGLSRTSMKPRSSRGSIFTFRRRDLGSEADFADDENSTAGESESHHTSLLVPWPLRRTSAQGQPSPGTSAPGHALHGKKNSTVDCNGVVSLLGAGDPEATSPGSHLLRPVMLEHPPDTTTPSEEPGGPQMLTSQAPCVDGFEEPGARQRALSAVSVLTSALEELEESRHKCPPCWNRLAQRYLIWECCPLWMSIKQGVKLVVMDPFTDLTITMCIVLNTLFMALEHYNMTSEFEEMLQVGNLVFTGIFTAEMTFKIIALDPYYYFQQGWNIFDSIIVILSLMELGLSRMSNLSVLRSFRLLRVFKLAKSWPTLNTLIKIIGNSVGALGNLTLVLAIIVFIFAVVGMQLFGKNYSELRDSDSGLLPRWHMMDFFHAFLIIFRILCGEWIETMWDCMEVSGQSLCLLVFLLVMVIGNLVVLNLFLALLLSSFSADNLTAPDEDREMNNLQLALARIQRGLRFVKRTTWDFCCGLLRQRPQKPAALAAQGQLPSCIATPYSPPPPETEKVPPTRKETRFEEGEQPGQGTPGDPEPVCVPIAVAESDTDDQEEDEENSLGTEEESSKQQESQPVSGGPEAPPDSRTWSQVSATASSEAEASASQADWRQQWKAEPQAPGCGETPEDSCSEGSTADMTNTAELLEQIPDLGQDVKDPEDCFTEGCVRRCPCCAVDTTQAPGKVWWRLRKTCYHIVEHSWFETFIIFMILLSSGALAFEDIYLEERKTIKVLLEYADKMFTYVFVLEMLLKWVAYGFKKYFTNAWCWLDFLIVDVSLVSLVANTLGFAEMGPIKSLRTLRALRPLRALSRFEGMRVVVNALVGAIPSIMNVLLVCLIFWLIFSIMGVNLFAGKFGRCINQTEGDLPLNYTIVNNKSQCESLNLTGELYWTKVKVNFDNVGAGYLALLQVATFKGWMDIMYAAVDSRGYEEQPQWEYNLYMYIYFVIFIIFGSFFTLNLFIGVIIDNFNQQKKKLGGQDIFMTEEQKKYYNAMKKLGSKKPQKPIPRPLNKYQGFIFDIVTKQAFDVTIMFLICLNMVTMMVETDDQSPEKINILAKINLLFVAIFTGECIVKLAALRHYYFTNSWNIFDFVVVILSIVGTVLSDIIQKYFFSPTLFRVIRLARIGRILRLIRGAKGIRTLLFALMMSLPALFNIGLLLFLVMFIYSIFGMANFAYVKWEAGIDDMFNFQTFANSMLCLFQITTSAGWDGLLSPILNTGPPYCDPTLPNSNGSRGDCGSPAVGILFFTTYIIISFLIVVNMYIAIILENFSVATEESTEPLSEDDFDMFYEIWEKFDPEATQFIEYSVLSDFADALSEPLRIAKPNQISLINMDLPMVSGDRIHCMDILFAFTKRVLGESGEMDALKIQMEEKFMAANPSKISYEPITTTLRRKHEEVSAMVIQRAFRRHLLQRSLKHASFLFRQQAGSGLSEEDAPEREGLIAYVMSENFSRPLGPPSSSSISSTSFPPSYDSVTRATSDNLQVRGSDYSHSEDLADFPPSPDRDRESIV

Structure (SMILES) | IC50 [1] | IC50 [2] | IC50 [3]
Cc1nocc1C(=O)Nc1ccc(-c2ccc(F)cc2)c(N)n1 [Example 40, N-[6-Amino-5-(4-fluorophenyl)pyridin-2-yl]-3-methylisoxazole-4-carboxamide] | 31 µM | 30 µM | 20 µM
Nc1nc(NC(=O)c2ccno2)ccc1-c1cc(Cl)cc(Cl)c1Cl [Example 78, N-[6-Amino-5-(2,3,5-trichlorophenyl)pyridin-2-yl]isoxazole-5-carboxamide] | 14 µM | 8.3 µM | 1.4 µM
Cc1nonc1C(=O)Nc1ccc(-c2ccccc2OC(F)(F)F)c(N)n1 [Example 50, N-{6-Amino-5-[2-(trifluoromethoxy)phenyl]pyridin-2-yl}-4-methyl-1,2,5-oxadiazole-3-carboxamide] | 19 µM | 9.8 µM | 3.1 µM
CCn1nccc1C(=O)Nc1ccc(-c2cccc(F)c2Cl)c(N)n1 [Example 58, N-[6-Amino-5-(2-chloro-3-fluorophenyl)pyridin-2-yl]-1-ethyl-1H-pyrazole-5-carboxamide] | 31 µM | 17 µM | 9.3 µM
CCn1nccc1C(=O)Nc1ccc(-c2cc(OC(F)(F)F)ccc2F)c(N)n1 [Example 64, N-{6-Amino-5-[2-fluoro-5-(trifluoromethoxy)phenyl]pyridin-2-yl}-1-ethyl-1H-pyrazole-5-carboxamide] | 14 µM | 3.7 µM | 5 µM
Nc1nc(NC(=O)c2conc2C(F)(F)F)ccc1-c1cc(F)ccc1Cl [Example 114] | 4.1 µM | 4 µM | 0.31 µM
Cc1nocc1C(=O)Nc1ccc(-c2ccccc2C(F)F)c(N)n1 [Example 42, N-[6-Amino-5-[2-(difluoromethyl)phenyl]pyridin-2-yl]-3-methylisoxazole-4-carboxamide] | > 32 µM | 22 µM | 2.5 µM
COCc1oncc1C(=O)Nc1ccc(-c2ccccc2OC(F)(F)F)c(N)n1 [Example 93] | > 32 µM | 7.1 µM | 1.5 µM
COc1ccc(Cl)c(-c2ccc(NC(=O)c3cnnn3C)nc2N)c1 [Example 83, N-[6-Amino-5-(2-chloro-5-methoxyphenyl)pyridin-2-yl]-1-methyl-1H-1,2,3-triazole-5-carboxamide] | 4.1 µM | 12 µM | 3.3 µM
COCc1oncc1C(=O)Nc1ccc(-c2cc(F)ccc2Cl)c(N)n1 [Example 92] | 19 µM | 17 µM | 0.57 µM
COc1cc(Cl)c(Cl)c(-c2ccc(NC(=O)c3conc3C)nc2N)c1 [Example 29, N-[6-Amino-5-(2,3-dichloro-5-methoxyphenyl)pyridin-2-yl]-3-methylisoxazole-4-carboxamide] | 6.4 µM | 8.2 µM | 0.55 µM
COc1cc(Cl)cc(-c2ccc(NC(=O)c3cnnn3C)nc2N)c1Cl [Example 87, N-[6-Amino-5-(2,5-dichloro-3-methoxyphenyl)pyridin-2-yl]-1-methyl-1H-1,2,3-triazole-5-carboxamide] | 9.9 µM | 15 µM | 6.1 µM
Cn1nccc1C(=O)Nc1ccc(-c2ccc(OC(F)(F)F)c(F)c2)c(N)n1 [Example 121] | 8.6 µM | 3.2 µM | 10 µM
COc1ccc(Cl)c(-c2ccc(NC(=O)c3ccnn3C)nc2N)c1 [Example 5, N-[6-Amino-5-(2-chloro-5-methoxyphenyl)pyridin-2-yl]-1-methyl-1H-pyrazole-5-carboxamide] | > 32 µM | > 32 µM | 0.9 µM
Cn1nccc1C(=O)Nc1ccc(-c2ccc(OCC(F)(F)F)cc2)c(N)n1 [Example 122] | 14 µM | 12 µM | 19 µM
Cn1nccc1C(=O)Nc1ccc(-c2cc(F)ccc2OC(F)(F)F)c(N)n1 [Example 116] | 28 µM | 26 µM | 2.3 µM
CC(C)n1nccc1C(=O)Nc1ccc(-c2cc(F)ccc2Cl)c(N)n1 [Example 67, N-[6-Amino-5-(2-chloro-5-fluorophenyl)pyridin-2-yl]-1-isopropyl-1H-pyrazole-5-carboxamide] | 31 µM | 22 µM | 5 µM
Cc1nocc1C(=O)Nc1ccc(-c2cccc(C(F)(F)F)c2Cl)c(N)n1 [Example 124] | 12 µM | 8.6 µM | 11 µM
Cc1nocc1C(=O)Nc1ccc(-c2cc(F)ccc2OC(F)(F)F)c(N)n1 [Example 115] | 7.9 µM | 5.3 µM | 0.28 µM
Cn1nccc1C(=O)Nc1ccc(-c2cccc(F)c2Cl)c(N)n1 [Example 13, N-[6-Amino-5-(2-chloro-3-fluorophenyl)pyridin-2-yl]-1-methyl-1H-pyrazole-5-carboxamide] | > 32 µM | > 32 µM | 8.8 µM

Structure (SMILES) | IC50 [1] | IC50 [2] | IC50 [3]
COCc1oncc1C(=O)Nc1ccc(-c2ccccc2Cl)c(N)n1 [Example 91] | > 32 µM | > 32 µM | 2.6 µM
Cc1oncc1C(=O)Nc1ccc(-c2ccccc2OC(F)(F)F)c(N)n1 [Example 23, N-{6-Amino-5-[2-(trifluoromethoxy)phenyl]pyridin-2-yl}-5-methylisoxazole-4-carboxamide] | 17 µM | 9.4 µM | 1.6 µM
Nc1nc(NC(=O)c2cnon2)ccc1-c1cc(Cl)ccc1Cl [Example 71, N-[6-Amino-5-(2,5-dichlorophenyl)pyridin-2-yl]-1,2,5-oxadiazole-3-carboxamide] | > 32 µM | > 32 µM | > 32 µM
Cn1nccc1C(=O)Nc1ccc(-c2ccccc2C(F)(F)F)c(N)n1 [Example 14, N-{6-Amino-5-[2-(trifluoromethyl)phenyl]pyridin-2-yl}-1-methyl-1H-pyrazole-5-carboxamide] | > 32 µM | > 32 µM | 8.4 µM
Cn1nccc1C(=O)Nc1ccc(-c2ccc(Cl)cc2Cl)c(N)n1 [Example 15, N-[6-Amino-5-(2,4-dichlorophenyl)pyridin-2-yl]-1-methyl-1H-pyrazole-5-carboxamide] | 13 µM | 21 µM | 10 µM
Cc1nonc1C(=O)Nc1ccc(-c2cc(F)ccc2Cl)c(N)n1 [Example 47, N-[6-Amino-5-(2-chloro-5-fluorophenyl)pyridin-2-yl]-4-methyl-1,2,5-oxadiazole-3-carboxamide] | 7.4 µM | 6.1 µM | 1.4 µM
COc1cc(Cl)c(Cl)c(-c2ccc(NC(=O)c3nonc3C)nc2N)c1 [Example 48, N-[6-Amino-5-(2,3-dichloro-5-methoxyphenyl)pyridin-2-yl]-4-methyl-1,2,5-oxadiazole-3-carboxamide] | 22 µM | 3.3 µM | 0.76 µM
COc1ccc(Cl)c(-c2ccc(NC(=O)c3ccon3)nc2N)c1 [Example 73, N-[6-Amino-5-(2-chloro-5-methoxyphenyl)pyridin-2-yl]isoxazole-3-carboxamide] | > 32 µM | 18 µM | 4.7 µM
Cc1nocc1C(=O)Nc1ccc(-c2cc(F)ccc2F)c(N)n1 [Example 34, N-[6-Amino-5-(2,5-difluorophenyl)pyridin-2-yl]-3-methylisoxazole-4-carboxamide] | 16 µM | 19 µM | 3.1 µM
CCn1nccc1C(=O)Nc1ccc(-c2ccccc2OC(F)(F)F)c(N)n1 [Example 59, N-{6-Amino-5-[2-(trifluoromethoxy)phenyl]pyridin-2-yl}-1-ethyl-1H-pyrazole-5-carboxamide] | 31 µM | 17 µM | 3.6 µM
COc1cc(Cl)cc(-c2ccc(NC(=O)c3nonc3C)nc2N)c1Cl [Example 51, N-[6-Amino-5-(2,5-dichloro-3-methoxyphenyl)pyridin-2-yl]-4-methyl-1,2,5-oxadiazole-3-carboxamide] |  | 4.5 µM | 2.6 µM
Cc1nonc1C(=O)Nc1ccc(-c2ccccc2Cl)c(N)n1 [Example 46, N-[6-Amino-5-(2-chlorophenyl)pyridin-2-yl]-4-methyl-1,2,5-oxadiazole-3-carboxamide] |  | 30 µM | 1.2 µM
COc1cccc(C(=O)Nc2ccc(-c3cc(Cl)ccc3Cl)c(N)n2)c1 [Example 102] |  | 5.4 µM | 2.3 µM
Cn1nncc1C(=O)Nc1ccc(-c2ccc(Cl)cc2Cl)c(N)n1 [Example 79, N-[6-Amino-5-(2,4-dichlorophenyl)pyridin-2-yl]-1-methyl-1H-1,2,3-triazole-5-carboxamide] |  | 22 µM | 5.8 µM
Cc1nonc1C(=O)Nc1ccc(-c2ccc(Cl)cc2Cl)c(N)n1 [Example 49, N-[6-Amino-5-(2,4-dichlorophenyl)pyridin-2-yl]-4-methyl-1,2,5-oxadiazole-3-carboxamide] |  | 12 µM | 6.1 µM
Cc1oncc1C(=O)Nc1ccc(-c2cc(Cl)ccc2Cl)c(N)n1 [Example 21, N-[6-Amino-5-(2,5-dichlorophenyl)pyridin-2-yl]-5-methylisoxazole-4-carboxamide] |  | 27 µM | 23 µM
Nc1nc(NC(=O)c2ccon2)ccc1-c1cc(Cl)ccc1Cl [Example 72, N-[6-Amino-5-(2,5-dichlorophenyl)pyridin-2-yl]isoxazole-3-carboxamide] |  | 15 µM | 8.6 µM
Nc1nc(NC(=O)c2ccon2)ccc1-c1ccccc1Cl [Example 74, N-[6-Amino-5-(2-chlorophenyl)pyridin-2-yl]isoxazole-3-carboxamide] |  | 30 µM | 4.2 µM
COc1cc(OC)cc(C(=O)Nc2ccc(-c3cc(Cl)ccc3Cl)c(N)n2)c1 [Example 104] |  | 8 µM | 3.3 µM
